Reference: paper PMC3602277 (Bioorganic & medicinal chemistry, 2013)
Each block holds one compound with its values, some of them ahead of it.

Tests used:
[1] = target: VEGFR-2 (Homo sapiens, UniProt P35968); test: Phosphotyrosine ELISA cytoblot, VEGFR-2 kinase inhibition in whole cells; format: cell-based; conditions: for fold less active than standard 20 in VEGFR-2 inhibition assay: ratio of IC50 vs semaxanib 20
[2] = system: A431 cancer cells; test: A431 cytotoxicity, CYQUANT cell proliferation assay; conditions: ratio of IC50 vs cisplatin 23
[3] = system: A431 cancer cells
[4] = target: EGFR (Homo sapiens, UniProt P00533); test: Phosphotyrosine ELISA cytoblot, EGFR kinase inhibition in whole cells; format: cell-based
[5] = target: PDGFR-β (Homo sapiens, UniProt P09619); test: Phosphotyrosine ELISA cytoblot, PDGFR-β kinase inhibition in whole cells; format: cell-based
[6] = system: EGFR; conditions: read-out: EGFR IC50; cited from earlier work

Chain of VEGFR-2 (P35968 20-1356): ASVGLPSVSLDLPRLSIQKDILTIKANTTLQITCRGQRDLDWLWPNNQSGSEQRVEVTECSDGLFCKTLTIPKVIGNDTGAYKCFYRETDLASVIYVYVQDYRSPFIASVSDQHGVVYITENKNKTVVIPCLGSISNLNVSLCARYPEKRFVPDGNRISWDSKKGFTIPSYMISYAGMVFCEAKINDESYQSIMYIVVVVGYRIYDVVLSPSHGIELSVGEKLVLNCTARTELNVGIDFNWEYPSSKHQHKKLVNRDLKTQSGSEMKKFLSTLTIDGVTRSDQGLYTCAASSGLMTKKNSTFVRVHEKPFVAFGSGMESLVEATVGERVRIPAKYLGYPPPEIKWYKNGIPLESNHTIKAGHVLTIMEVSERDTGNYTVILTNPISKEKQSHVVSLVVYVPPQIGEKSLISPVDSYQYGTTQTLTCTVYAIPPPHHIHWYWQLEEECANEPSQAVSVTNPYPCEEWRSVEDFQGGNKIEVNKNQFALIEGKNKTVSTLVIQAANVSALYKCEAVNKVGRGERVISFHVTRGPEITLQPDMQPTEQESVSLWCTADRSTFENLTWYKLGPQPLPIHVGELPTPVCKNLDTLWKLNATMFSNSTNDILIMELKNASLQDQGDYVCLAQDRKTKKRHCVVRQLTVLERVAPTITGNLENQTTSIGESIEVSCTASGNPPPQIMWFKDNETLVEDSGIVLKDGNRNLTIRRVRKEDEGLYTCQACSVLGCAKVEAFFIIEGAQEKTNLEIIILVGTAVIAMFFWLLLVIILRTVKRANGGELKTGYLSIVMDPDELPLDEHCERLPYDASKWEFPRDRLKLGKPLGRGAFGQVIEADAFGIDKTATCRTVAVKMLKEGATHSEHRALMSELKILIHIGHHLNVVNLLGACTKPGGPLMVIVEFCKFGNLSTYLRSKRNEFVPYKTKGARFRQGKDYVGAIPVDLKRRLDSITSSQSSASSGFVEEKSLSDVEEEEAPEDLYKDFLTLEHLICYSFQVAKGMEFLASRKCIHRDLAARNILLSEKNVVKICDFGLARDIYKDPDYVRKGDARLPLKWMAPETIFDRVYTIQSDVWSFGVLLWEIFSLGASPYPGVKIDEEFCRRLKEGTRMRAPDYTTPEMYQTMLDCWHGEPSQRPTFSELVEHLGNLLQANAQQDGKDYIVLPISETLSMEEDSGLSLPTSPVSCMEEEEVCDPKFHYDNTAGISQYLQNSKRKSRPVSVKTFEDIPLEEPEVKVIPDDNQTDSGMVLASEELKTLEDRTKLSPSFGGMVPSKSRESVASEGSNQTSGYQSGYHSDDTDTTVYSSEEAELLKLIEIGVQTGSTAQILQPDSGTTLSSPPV
Chain of EGFR (Homo sapiens, UniProt P00533) (P00533 25-1210): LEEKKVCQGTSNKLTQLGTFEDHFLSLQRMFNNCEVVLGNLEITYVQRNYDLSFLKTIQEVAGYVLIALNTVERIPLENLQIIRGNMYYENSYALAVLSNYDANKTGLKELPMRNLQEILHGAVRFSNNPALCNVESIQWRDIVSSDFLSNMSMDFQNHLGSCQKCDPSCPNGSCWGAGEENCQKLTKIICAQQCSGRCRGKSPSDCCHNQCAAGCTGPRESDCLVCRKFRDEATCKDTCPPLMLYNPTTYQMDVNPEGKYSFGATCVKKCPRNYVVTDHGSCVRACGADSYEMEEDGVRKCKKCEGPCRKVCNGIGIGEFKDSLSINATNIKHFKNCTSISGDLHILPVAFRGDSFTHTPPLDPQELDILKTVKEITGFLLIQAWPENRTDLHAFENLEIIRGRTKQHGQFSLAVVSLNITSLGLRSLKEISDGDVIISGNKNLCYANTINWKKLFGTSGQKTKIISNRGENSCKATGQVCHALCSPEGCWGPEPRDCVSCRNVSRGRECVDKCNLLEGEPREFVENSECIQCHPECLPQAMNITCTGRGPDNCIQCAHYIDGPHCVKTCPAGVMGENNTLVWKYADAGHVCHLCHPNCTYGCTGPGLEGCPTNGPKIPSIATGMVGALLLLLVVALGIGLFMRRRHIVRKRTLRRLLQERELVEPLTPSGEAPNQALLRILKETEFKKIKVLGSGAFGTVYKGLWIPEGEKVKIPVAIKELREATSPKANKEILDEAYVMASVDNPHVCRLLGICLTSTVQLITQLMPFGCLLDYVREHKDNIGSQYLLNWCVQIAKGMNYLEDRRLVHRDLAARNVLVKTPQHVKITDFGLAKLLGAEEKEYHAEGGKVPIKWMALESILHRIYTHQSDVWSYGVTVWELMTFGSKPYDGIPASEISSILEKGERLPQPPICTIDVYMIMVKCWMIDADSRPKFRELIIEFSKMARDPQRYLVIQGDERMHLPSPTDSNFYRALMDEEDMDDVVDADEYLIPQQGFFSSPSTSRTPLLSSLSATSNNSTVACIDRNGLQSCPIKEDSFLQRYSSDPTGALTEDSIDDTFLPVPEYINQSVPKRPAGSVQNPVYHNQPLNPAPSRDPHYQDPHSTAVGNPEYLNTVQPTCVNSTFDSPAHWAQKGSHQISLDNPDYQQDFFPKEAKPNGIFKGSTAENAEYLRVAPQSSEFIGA
Chain of PDGFR-β (P09619 33-1106): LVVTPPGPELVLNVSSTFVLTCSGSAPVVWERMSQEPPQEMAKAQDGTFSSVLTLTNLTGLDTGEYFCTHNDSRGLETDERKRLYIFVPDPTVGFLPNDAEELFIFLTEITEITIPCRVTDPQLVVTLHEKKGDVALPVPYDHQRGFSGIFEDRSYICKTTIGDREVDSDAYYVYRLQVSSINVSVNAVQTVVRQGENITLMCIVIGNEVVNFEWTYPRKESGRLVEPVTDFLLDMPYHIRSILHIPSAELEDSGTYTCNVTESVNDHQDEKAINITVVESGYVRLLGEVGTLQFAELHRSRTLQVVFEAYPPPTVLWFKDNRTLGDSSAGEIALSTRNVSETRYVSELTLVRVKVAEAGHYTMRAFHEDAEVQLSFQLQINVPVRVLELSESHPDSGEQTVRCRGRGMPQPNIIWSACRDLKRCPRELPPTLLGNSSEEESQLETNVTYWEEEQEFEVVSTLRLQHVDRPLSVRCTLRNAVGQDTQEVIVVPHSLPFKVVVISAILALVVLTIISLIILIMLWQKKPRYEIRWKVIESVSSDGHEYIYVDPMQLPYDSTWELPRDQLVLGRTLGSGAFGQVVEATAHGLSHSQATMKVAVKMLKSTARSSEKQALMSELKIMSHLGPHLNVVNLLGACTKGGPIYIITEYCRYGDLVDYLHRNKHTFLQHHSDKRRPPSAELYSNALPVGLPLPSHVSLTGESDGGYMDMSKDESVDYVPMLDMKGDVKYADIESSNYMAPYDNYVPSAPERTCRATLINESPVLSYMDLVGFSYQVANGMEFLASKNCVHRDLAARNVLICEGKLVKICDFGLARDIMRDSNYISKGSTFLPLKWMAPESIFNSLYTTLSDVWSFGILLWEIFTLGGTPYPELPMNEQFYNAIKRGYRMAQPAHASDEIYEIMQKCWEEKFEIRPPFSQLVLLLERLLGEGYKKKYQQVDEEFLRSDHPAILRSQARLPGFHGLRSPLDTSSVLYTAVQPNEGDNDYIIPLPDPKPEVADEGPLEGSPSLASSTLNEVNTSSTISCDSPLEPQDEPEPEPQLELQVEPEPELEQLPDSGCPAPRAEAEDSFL

fold less active than standard 20 in VEGFR-2 inhibition assay [1]: ~3.5 fold
Compound: COc1cccc(Nc2nc(NC(=O)C(C)(C)C)nc3[nH]c4cccc(Cl)c4c23)c1 [Compound 14, N-{5-chloro-4-[(3-methoxyphenyl)amino]-9H-pyrimido[4,5-b]indol-2-yl}-2,2-dimethylpropanamide]

fold less active than standard 20 in VEGFR-2 inhibition assay [1]: 2 fold
Compound: CC(C)(C)C(=O)Nc1nc(Nc2ccc(Cl)cc2)c2c(n1)[nH]c1cccc(Cl)c12 [Compound 11, N-{5-chloro-4-[(4-chlorophenyl)amino]-9H-pyrimido[4,5-b]indol-2-yl}-2,2-dimethylpropanamide]
fold less potent than standard 23 in A431 cytotoxicity assay [2]: 5 fold

IC50 [3]: 10.6 ± 2.9 µM
Compound: [NH2][Pt]([NH2])([Cl])[Cl] [Cisplatin (23), cisplatin]

fold less active than standard 20 in VEGFR-2 inhibition assay [1]: ~4 fold
Compound: CC(C)c1ccc(Nc2nc(NC(=O)C(C)(C)C)nc3[nH]c4cccc(Cl)c4c23)cc1 [Compound 10, N-{5-chloro-4-[(4-isopropylphenyl)amino]-9H-pyrimido[4,5-b]indol-2-yl}-2,2-dimethylpropanamide]

fold more potent than erlotinib in VEGFR-2 inhibition assay ([1]; ratio of IC50 vs erlotinib): 9.4 fold
fold more potent than sunitinib in VEGFR-2 inhibition assay ([1]; ratio of IC50 vs sunitinib): 1.4 fold
potency relative to standard 20 in VEGFR-2 inhibition assay ([1]; vs semaxanib 20): equipotent
Compound: Nc1nc(Nc2ccc(Cl)cc2)c2c(n1)[nH]c1cccc(Cl)c12 [Compound 5, 5-chloro-N^4-(4-chlorophenyl)-9H-pyrimido[4,5-b]indole-2,4-diamine]
fold less potent than standard 23 in A431 cytotoxicity assay [2]: 4 fold

fold less potent than standard 21 in EGFR inhibition assay ([4]; ratio of IC50 vs PD153035 21): 150 fold
fold less active than erlotinib in EGFR inhibition assay ([4]; ratio of IC50 vs erlotinib): 25 fold
fold less active than standard 20 in VEGFR-2 inhibition assay [1]: about 2.5 fold
Compound: CC(C)(C)C(=O)Nc1nc(Nc2cccc(F)c2)c2c(n1)[nH]c1cccc(Cl)c12 [Compound 13, N-{5-chloro-4-[(3-fluorophenyl)amino]-9H-pyrimido[4,5-b]indol-2-yl}-2,2-dimethylpropanamide]

fold less active than corresponding 2-amino pivaloyl compound, VEGFR-2 ([1]; 7 vs 13, 8 vs 14): ~1.7 fold
fold less active than standard 20 in VEGFR-2 inhibition assay [1]: 7 fold
fold less active than standard 22 in PDGFR-β inhibition assay ([5]; ratio of IC50 vs DMBI 22): about 13.5 fold
fold less active than erlotinib in PDGFR-β inhibition assay ([5]; ratio of IC50 vs erlotinib): 4 fold
Compound: COc1cccc(Nc2nc(N)nc3[nH]c4cccc(Cl)c4c23)c1 [Compound 8, 5-chloro-N^4-(3-methoxyphenyl)-9H-pyrimido[4,5-b]indole-2,4-diamine]

Compound: Clc1cccc(Nc2ncnc3[nH]c4ccccc4c23)c1 [Compound 1]
IC50 [6]: 6 nM
